The test deals with NL-RLuc virus. The test can be described thus: Inhibition of HIV replication (NL-RLuc virus, luciferase readout in MT-2 cells). Format: cell-based. To be noted: Human immunodeficiency virus 1, MT2, 120 h, MT-2 cells infected with NL-RLuc virus, 5 days of incubation, 10% FBS, at least 2 experiments. The method, boiled down: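 EC50 derived via median effect equation from at least 2 experiments, using luciferase expression as virus-growth readout. Replication-competent NL-RLuc reporter virus (nef partly replaced by Renilla luciferase) infected MT-2 cells with serial compound dilutions; 5-day incubation in RPMI 1640 plus 10% FBS.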

The text below walks through data of patent US20200055839A1 (priority 2017, published 2020).

In the case of `Cc1nc(Nc2ncccn2)c(-c2ccc(OCCc3ccc(F)cc3)c(F)c2)c(N2CCC(C)(C)CC2)c1[C@H](OC(C)(C)C)C(=O)O` [Example 105, (S)-2-(tert-Butoxy)-2-(4-(4,4-dimethylpiperidin-1-yl)-5-(3-fluoro-4-(4-fluorophenethoxy)phenyl)-2-methyl-6-(pyrimidin-2-ylamino)pyridin-3-yl)acetic acid], the EC50 was determined as 4 nM.
The compound `Cc1ncc(-c2cnc(OCCc3ccc(F)cc3)c(Cl)c2)c(N2CCC(C)(C)CC2)c1[C@H](OC(C)(C)C)C(=O)O` [Example 250, (S)-2-(tert-Butoxy)-2-(5′-chloro-4-(4,4-dimethylpiperidin-1-yl)-6′-(4-fluorophenethoxy)-6-methyl-[3, 3′-bipyridin]-5-yl)acetic acid] yielded an EC50 of 2 nM.
For the compound `Cc1ccncc1Nc1nc(C)c([C@H](OC(C)(C)C)C(=O)O)c(N2CCC(C)(C)CC2)c1-c1ccc(OCCc2ccc(F)cc2)cc1` [Example 86, (S)-2-(tert-Butoxy)-2-(4-(4,4-dimethylpiperidin-1-yl)-5-(4-(4-fluorophenethoxy)phenyl)-2-methyl-6-((4-methylpyridin-3-yl)amino)pyridin-3-yl)acetic acid], a half-maximal response (EC50) required 3 nM.
The compound `Cc1ncc(-c2cnc(OCC(C)C)c(F)c2)c(N2CCC(C)(C)CC2)c1[C@H](OC(C)(C)C)C(=O)O` [Example 381, (2S)-2-(tert-butoxy)-2-[4-(4,4-dimethylpiperidin-1-yl)-5′-fluoro-6-methyl-6′-(2-methylpropoxy)-[3,3′-bipyridine]-5-yl]acetic acid] displayed an EC50 of 3 nM.
In the case of `Cc1nc(Nc2ccncc2F)c(-c2ccc(OCCc3ccc(F)cc3)cc2)c(N2CCC(C)(C)CC2)c1[C@H](OC(C)(C)C)C(=O)O` [Example 93, (S)-2-(tert-Butoxy)-2-(4-(4,4-dimethylpiperidin-1-yl)-5-(4-(4-fluorophenethoxy)phenyl)-6-((3-fluoropyridin-4-yl)amino)-2-methylpyridin-3-yl)acetic acid] it was 12 nM.
As for `Cc1ncc(-c2ccc(O[C@H](C)C(C)C)cn2)c(N2CCC(C)(C)CC2)c1[C@H](OC(C)(C)C)C(=O)O` [Example 319, (2S)-2-(tert-butoxy)-2-[4′-(4,4-dimethylpiperidin-1-yl)-6′-methyl-5-{[(2R)-3-methylbutan-2-yl]oxy}-[2,3′-bipyridine]-5′-yl]acetic acid], the figure is 7 nM.
As for `Cc1ncc(-c2ccc(CNc3ncnc4c3oc3ccccc34)c(F)c2)c(N2CCC(C)(C)CC2)c1[C@H](OC(C)(C)C)C(=O)O` [Example 218, (S)-2-(5-(4-((Benzofuro[3,2-d]pyrimidin-4-ylamino)methyl)-3-fluorophenyl)-4-(4,4-dimethylpiperidin-1-yl)-2-methylpyridin-3-yl)-2-(tert-butoxy)acetic acid], the figure is 0.2 nM.
For `Cc1ncc(-c2ccc(OCCc3ccc(F)cc3)c(F)c2F)c(N2CCC(C)(C)CC2)c1[C@H](OC(C)(C)C)C(=O)O` [Example 124, (S)-2-(tert-Butoxy)-2-(5-(2,3-difluoro-4-(4-fluorophenethoxy)phenyl)-4-(4,4-dimethylpiperidin-1-yl)-2-methylpyridin-3-yl)acetic acid], a half-maximal response (EC50) required 2 nM. This EC50 is about 10-fold higher than that of the compound before.
As for `CC1(C)CCN(c2c(-c3ccc(OCCc4ccc(F)cc4)cc3)cnc(N3CCCC3)c2[C@H](OC(C)(C)C)C(=O)O)CC1` [Example 202, (S)-2-(tert-Butoxy)-2-(4-(4,4-dimethylpiperidin-1-yl)-5-(4-(4-fluorophenethoxy)phenyl)-2-(pyrrolidin-1-yl)pyridin-3-yl)acetic acid], the figure is 75 nM; as for `Cc1ccc(CCOc2ccc(-c3cnc(C)c([C@H](OC(C)(C)C)C(=O)O)c3N3CCC(C)(C)CC3)nc2)cc1` [Example 300, (2S)-2-(tert-butoxy)-2-[4′-(4,4-dimethylpiperidin-1-yl)-6′-methyl-5-[2-(4-methylphenyl)ethoxy]-[2,3′-bipyridine]-5′-yl]acetic acid], 1 nM; as for `Cc1ncc(-c2ccc(OCCc3c(F)cc(F)cc3F)cn2)c(N2CCC(C)(C)CC2)c1[C@H](OC(C)(C)C)C(=O)O` [Example 298, (2S)-2-(tert-butoxy)-2-[4′-(4,4-dimethylpiperidin-1-yl)-6′-methyl-5-[2-(2,4,6-trifluorophenyl)ethoxy]-[2,3′-bipyridine]-5′-yl]acetic acid], 1 nM.
`CCCCOc1ccc(-c2cnc(C)c([C@H](OC(C)(C)C)C(=O)O)c2N2CCC(C)(C)CC2)nc1` [Example 313, (2S)-2-(tert-butoxy)-2-[5-butoxy-4′-(4,4-dimethylpiperidin-1-yl)-6′-methyl-[2,3′-bipyridine]-5′-yl]acetic acid] gave an EC50 of 1 nM.
As for `COc1ccccc1-c1cnc(C)c([C@H](OC(C)(C)C)C(=O)O)c1N1CCC(C)(C)CC1` [Example 167, (2S)-2-(tert-Butoxy)-2-[4-(4,4-dimethylpiperidin-1-yl)-5-(2-methoxyphenyl)-2-methylpyridin-3-yl]acetic acid], the figure is 5 nM.
As for `Cc1ncc(-c2cnc(OCCc3ccc(F)cc3)cn2)c(N2CCC(C)(C)CC2)c1[C@H](OC(C)(C)C)C(=O)O` [Example 16, (S)-2-(tert-Butoxy)-2-(4-(4,4-dimethylpiperidin-1-yl)-5-(5-(4-fluorophenethoxy)pyrazin-2-yl)-2-methylpyridin-3-yl)acetic acid], the figure is 2 nM; as for `Cc1nc(Nc2ccncc2)c(-c2ccc(OCCc3ccc(F)cc3)c(F)c2)c(N2CCC(C)(C)CC2)c1[C@H](OC(C)(C)C)C(=O)O` [Example 104, (S)-2-(tert-Butoxy)-2-(4-(4,4-dimethylpiperidin-1-yl)-5-(3-fluoro-4-(4-fluorophenethoxy)phenyl)-2-methyl-6-(pyridin-4-ylamino)pyridin-3-yl)acetic acid], 0.7 nM; as for `Cc1ccc(-c2cnc(C)c([C@H](OC(C)(C)C)C(=O)O)c2N2CCC(C)(C)CC2)nc1` [Example 185, (2S)-2-(tert-Butoxy)-2-[4′-(4,4-dimethylpiperidin-1-yl)-5,6′-dimethyl-[2, 3′-bipyridine]-5′-yl]acetic acid], 11 nM.
As to `Cc1nc(NCC2CCOCC2)c(-c2ccc(OCCc3ccc(F)cc3)cc2)c(N2CCC(C)(C)CC2)c1[C@H](OC(C)(C)C)C(=O)O` [Example 44, (S)-2-(tert-Butoxy)-2-(4-(4,4-dimethylpiperidin-1-yl)-5-(4-(4-fluorophenethoxy)phenyl)-2-methyl-6-(((tetrahydro-2H-pyran-4-yl)methyl)amino)pyridin-3-yl)acetic acid], a half-maximal response (EC50) required 3 nM.
In the case of `COc1ccc(CCOc2ncc(-c3cnc(C)c([C@H](OC(C)(C)C)C(=O)O)c3N3CCC(C)(C)CC3)cc2F)cc1C` [Example 391, (2S)-2-(tert-butoxy)-2-[4-(4,4-dimethylpiperidin-1-yl)-5′-fluoro-6′-[2-(4-methoxy-3-methylphenyl)ethoxy]-6-methyl-[3,3′-bipyridine]-5-yl]acetic acid] it was 4 nM; in that of `Cc1ncc(-c2cnc(OCCc3c(Cl)cccc3Cl)c(F)c2)c(N2CCC(C)(C)CC2)c1[C@H](OC(C)(C)C)C(=O)O` [Example 373, (2S)-2-(tert-butoxy)-2-{6′-[2-(2,6-dichlorophenyl)ethoxy]-4-(4,4-dimethylpiperidin-1-yl)-5′-fluoro-6-methyl-[3,3′-bipyridine]-5-yl}acetic acid], 3 nM.
Compound `Cc1ncc(-c2cc(F)cc(F)c2F)c(N2CCC(C)(C)CC2)c1[C@H](OC(C)(C)C)C(=O)O` [Example 174, (2S)-2-(tert-Butoxy)-2-[4-(4,4-dimethylpiperidin-1-yl)-2-methyl-5-(2,3,5-trifluorophenyl)pyridin-3-yl]acetic acid] showed an EC50 of 11 nM.
In the case of `Cc1cccc(Cl)c1CCOc1ccc(-c2cnc(C)c([C@H](OC(C)(C)C)C(=O)O)c2N2CCC(C)(C)CC2)nc1` [Example 284, (S)-2-(tert-Butoxy)-2-(5-(2-chloro-6-methylphenethoxy)-4′-(4,4-dimethylpiperidin-1-yl)-6′-methyl-[2, 3′-bipyridin]-5′-yl)acetic acid] it was 3 nM; in that of `Cc1ncc(-c2ccc(OCCc3ccccc3F)cn2)c(N2CCC(C)(C)CC2)c1[C@H](OC(C)(C)C)C(=O)O` [Example 303, (2S)-2-(tert-butoxy)-2-[4′-(4,4-dimethylpiperidin-1-yl)-5-[2-(2-fluorophenyl)ethoxy]-6′-methyl-[2,3′-bipyridine]-5′-yl]acetic acid], 0.6 nM.
In the case of `Cc1n[nH]cc1-c1nc(C)c([C@H](OC(C)(C)C)C(=O)O)c(N2CCC(C)(C)CC2)c1-c1ccc(OCCc2ccc(F)cc2)cc1` [Example 38, (S)-2-(tert-Butoxy)-2-(4-(4,4-dimethylpiperidin-1-yl)-5-(4-(4-fluorophenethoxy)phenyl)-2-methyl-6-(3-methyl-1H-pyrazol-4-yl)pyridin-3-yl)acetic acid] it was 8 nM; in that of `Cc1cc(-c2cnc(C)c([C@H](OC(C)(C)C)C(=O)O)c2N2CCC(C)(C)CC2)nnc1OCCc1ccc(F)cc1` [Example 268, (S)-2-(tert-Butoxy)-2-(4-(4,4-dimethylpiperidin-1-yl)-5-(6-(4-fluorophenethoxy)-5-methylpyridazin-3-yl)-2-methylpyridin-3-yl)acetic acid], 50 nM; in that of `Cc1ncc(-c2ccc(O[C@@H](C)C(C)C)cc2)c(N2CCC(C)(C)CC2)c1[C@H](OC(C)(C)C)C(=O)O` [Example 363, (2S)-2-(tert-butoxy)-2-[4-(4,4-dimethylpiperidin-1-yl)-2-methyl-5-(4-{[(2S)-3-methylbutan-2-yl]oxy}phenyl)pyridin-3-yl]acetic acid], 13 nM.
In the case of `CC1(C)CCN(c2c(-c3ccc(CNc4ncnc5c4oc4ccccc45)c(F)c3)cnc(Cl)c2[C@H](OC(C)(C)C)C(=O)O)CC1` [Example 221, (S)-2-(5-(4-((Benzofuro[3,2-d]pyrimidin-4-ylamino)methyl)-3-fluorophenyl)-2-chloro-4-(4,4-dimethylpiperidin-1-yl)pyridin-3-yl)-2-(tert-butoxy)acetic acid] it was 0.3 nM.
